In patent publication US9017693B2, “Apoptotically active peptides” (Cytotools AG, priority 2001, dated 2015):
Non-standard residues stand in square brackets, D forms with d. No end group written: not given here.

Experiments:
HUVEC [1] = assay: Test system for apoptotically active peptides: TSP-1-induced apoptosis of cultivated HUVEC, DAPI dyeing; format: cell-based, human
Description: For the purposes of the disclosure, the term “apoptotically active” will mean that the addition of the respective substance to the test system shown in Examples 5 and 6 generates either a positive or negative inhibition index. Particularly endothelial cells, preferably especially HUVEC, are to this end cultivated in a medium which includes 1 μg TSP-1 per ml. The percentage apoptosis values of such positive control will then serve, as shown in the examples, for the calculation of the inhibition index for those substances which are used as potential inhibitors together with the inductor TSP-1 in parallel tests.
(§1) Cultivation of HUVEC takes place in gelatin-coated culture vessels at 37° C., 5% CO2 and water vapor saturated atmosphere. The culture medium is exchanged every two to three days; in case of confluence, the cells are passaged at a cleavage rate of from 1:3 to 1:5. HUVEC grow strictly contact-inhibited and form unilaminar cell bed having the typical cobble-stone morphology. In case of confluence, the cultures reach cell densities of 4-9×10^4 cells/cm^2. For apoptosis examinations, HUVEC cultures of passages 1-4 are exclusively employed.
(§2) The culture supernatant of a Petri dish is sucked off, the cell bed is fixed on ice for 15 minutes with 1 ml formaldehyde solution, is washed twice with 2 ml PBS, is added 0.5 ml DAPI solution for 15 minutes, is washed with PBS and evaluated under the fluorescence microscope. A UV filter set and a 20× and a 40× objective are used. 500 to 1000 cells are selected at random and the cells having apoptotic nuclei are counted.
(§3) The apoptosis index is calculated in accordance with the following formula: Apoptosis index [%]=number of apoptotic cells/total cell number×100 Flow Cytometry: Solutions: • PBS • Medium • Ethanol (reagent-grade) ice-cooled (−20° C.) • DAPI buffer • DAPI stock solution • DAPI dye solution Procedure:
The culture supernatant is sucked off and the cells are trypsinized without washing them with PBS. The cell suspension is received in medium, is counted, is centrifuged at 800×g for 5 minutes, the sediment is re-suspended in 0.5 ml IF and is dripped into 1.5 ml ice-cold ethanol. The suspension is stored overnight at […]. After renewed centrifugation and re-suspending of the sediment in 2 ml PBS, there follows a half-hour incubation at 37° C., further centrifugation, re-suspending of the sediment in 5 ml DAPI solution, and counting in the flow cytometer at a counting rate of 50 to 300 events per second. […] Caused by the decreasing absolute DNS amount per cell, apoptotic cells appear in a sub-G1 peak [Darzynklewicz Z. et al., Cytometry, 13, 795-808 (1992); Zamai L. et al., Cytometry, 14, 891-897 (1993)].
The cells were cultivated as described in Example 1. The cells are seeded in the corresponding culture vessels (e.g. 24-hole plate/0.5 ml per cavity) and, having obtained complete confluence, are employed for the test. The cells are provided with new medium: • (a) fresh culture medium [Base rate of apoptosis], • (b) fresh medium with 1 μg/ml TSP-1 [Apoptosis-induced substance; control], • (c) medium (b)+peptide of SEQ ID NO 1, 1 mM • (d) medium (b)+peptide of SEQ ID NO 2, 1 mM • (e) medium (b)+peptide of SEQ ID NO 3, 1 mM • (f) medium (b)+peptide of SEQ ID NO 4, 1 mM • (g) medium (b)+peptide of SEQ ID NO 7, 1 mM • (h) medium (b)+peptide of SEQ ID NO 8, 1 mM • (i) medium (b)+peptide of SEQ ID NO 9, 1 mM • (j) medium (b)+peptide of SEQ ID NO 10, 1 mM • (k) medium (b)+peptide of SEQ ID NO 11, 1 mM • (l) medium (b)+peptide of SEQ ID NO 12, 1 mM • (m) medium (b)+peptide of SEQ ID NO 13, 1 mM • (n) medium (b)+peptide of SEQ ID NO 14, 1 mM • (o) medium (b)+peptide of SEQ ID NO 15, 1 mM • (p) medium (b)+peptide of SEQ ID NO 16, 1 mM • (q) medium (b)+peptide of SEQ ID NO 17, 1 mM • (r) medium (b)+peptide of SEQ ID NO 18, 1 mM • (s) medium (b)+peptide of SEQ ID NO 19, 1 mM […]

HUVEC [2] = assay: Induction of apoptosis at HUVEC with TSP-1; format: cell-based, human; conditions: confluent HUVEC, fresh medium + TSP-1 1 μg/ml; fresh medium alone 0.9 ± 0.1
Description: as §1, §2, §3
The cells are cultivated as described in Example 1. Having obtained complete confluence, the cells are used for the test. […]

[3] = lengthened peptide sequences, TSP-1 + peptide, tests as in Example 5, control 8.73 ± 0.43
[4] = lengthened peptide sequences, TSP-1 + peptide, tests as in Example 5, positive = substance inhibited
[5] = 1 μg/ml TSP-1 + peptide 1 mM, 24 hours, positive = substance inhibited, negative = substance induced apoptosis
[6] = medium with 1 μg/ml TSP-1 + peptide 1 mM, 24 hours, mean ± SD of three independent experiments, control 3.28 ± 0.55

| Substance | Apoptosis index [%] (HUVEC [1]; [3]) | Inhibition index [%] (HUVEC [1]; [4]) | Inhibition index [%] (HUVEC [1]; [5]) | Apoptosis index [%] (HUVEC [1]; [6]) | Apoptosis rate (%) after 24 h (HUVEC [2]) [%] |
| --- | --- | --- | --- | --- | --- |
| K-R-A-Y-V-V-M-W-K-K (KRAYVVMWLL) [SEQ ID NO 5] | 0.37 ± 0.22 | +95.8 ± 2.6% | – | – | – |
| K-R-E-Y-V-V-M-W-K-K (LREYVVMWKK) [SEQ ID NO 6] | 0.48 ± 0.22 | +94.5 ± 2.5% | – | – | – |
| M-V-V-Y-F-R (MVVYFR) [SEQ ID NO 12] | – | – | −34.1 ± 6.2% | 4.40 ± 0.53 | – |
| R-A-Y-V-V-A (RAYVVA) [SEQ ID NO 13] | – | – | −51.8 ± 6.0% | 4.98 ± 0.3 | – |
| R-A-Y-V-V-M (RAYVVM) [SEQ ID NO 1] | – | – | +75.3 ± 7.5% | 0.83 ± 0.24 | – |
| R-C-Y-V-V-M (RCYVVM) [SEQ ID NO 17] | – | – | −326.5 ± 3.6% | 13.97 ± 0.35 | – |
| R-D-Y-V-V-M (RDYVVM) [SEQ ID NO 11] | – | – | +37.3 ± 14.0% | 2.12 ± 0.47 | – |
| R-E-Y-V-V-M (REYVVM) [SEQ ID NO 4] | – | – | +69.0 ± 8.9% | 1.04 ± 0.30 | – |
| R-G-Y-V-V-M (RGYVVM) [SEQ ID NO 7] | – | – | +46.4 ± 11.1% | 1.83 ± 0.37 | – |
| R-L-Y-V-V-M (RLYVVM) [SEQ ID NO 14] | – | – | −95.4 ± 6.1% | 6.41 ± 0.63 | – |
| R-M-Y-V-V-M (RMYVVM) [SEQ ID NO 8] | – | – | +44.2 ± 11.6% | 1.84 ± 0.39 | – |
| R-N-Y-V-V-M (RNYVVM) [SEQ ID NO 10] | – | – | +39.5 ± 15.8% | 2.06 ± 0.53 | – |
| R-P-Y-V-V-M (RPYVVM) [SEQ ID NO 15] | – | – | −72.8 ± 6.4% | 5.67 ± 0.54 | – |
| R-S-Y-V-V-M (RSYVVM) [SEQ ID NO 16] | – | – | −108.4 ± 3.7% | 6.86 ± 0.37 | – |
| R-T-Y-V-V-M (RTYVVM) [SEQ ID NO 9] | – | – | +44.5 ± 9.8% | 1.86 ± 0.36 | – |
| R-W-Y-V-V-M (RWYVVM) [SEQ ID NO 2] | – | – | +61.9 ± 7.7% | 1.30 ± 0.26 | – |
| R-Y-Y-V-V-M (RYYVVM) [SEQ ID NO 3] | – | – | +74.7 ± 5.0% | 0.85 ± 0.17 | – |
| TSP-1: thrombospondin 1, apoptosis-inducing substance added at 1 μg/ml to HUVEC medium as inductor/control | – | – | – | – | 3.0 ± 0.4 |
| m-v-v-y-a-r ([dM][dV][dV][dY][dA][dR]) [SEQ ID NO 19] | – | – | −247.1 ± 5.4% | 11.4 ± 0.63 | – |
| m-v-v-y-f-r ([dM][dV][dV][dY][dF][dR]) [SEQ ID NO 18] | – | – | −345.1 ± 5.1% | 14.6 ± 0.75 | – |
